According to patent US20250098679A1, “HERBICIDAL PYRIDONE DERIVATIVES” (SYNGENTA CROP PROTECTION AG, priority 2021, published 2025):

Legend:
Type in all cases: in vivo
Conditions in all cases: evaluated after 13 days
[1] = test system: Setaria faberi (SETFA); assay: Pre-emergence Test, Setaria faberi (SETFA)
[2] = test system: Echinochloa crus-galli (ECHCG); assay: Pre-emergence Test, Echinochloa crus-galli (ECHCG)
[3] = test system: Zea mays (ZEAMX); assay: Pre-emergence Test, Zea mays (ZEAMX)
[4] = test system: Ipomoea hederacea (IPOHE); assay: Pre-emergence Test, Ipomoea hederacea (IPOHE)
[5] = test system: Amaranthus palmeri (AMAPA); assay: Pre-emergence Test, Amaranthus palmeri (AMAPA)
[6] = test system: Amaranthus retoflexus (AMARE); assay: Pre-emergence Test, Amaranthus retoflexus (AMARE)
[7] = test system: Setaria faberi (SETFA); assay: Post-emergence Test, Setaria faberi (SETFA); set-up: key to percentage damage caused to the plant, SETFA (five-point scale): 5=81-100%, 4=61-80%, 3=41-60%, 2=21-40%, 1=0-20% damage
Summary of the method: (§1)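 Pots sprayed with compound in acetone/water (50:50) with 0.5% Tween 20, at 1000 g/ha unless noted, glasshouse 24/16 °C, 14 h light, 65% humidity. Damage scored 13 days after spraying on a five-point scale (5=81-100% to 1=0-20%).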

[8] = test system: Echinochloa crus-galli (ECHCG); assay: Post-emergence Test, Echinochloa crus-galli (ECHCG); set-up: key to percentage damage caused to the plant, ECHCG (five-point scale): 5=81-100%, 4=61-80%, 3=41-60%, 2=21-40%, 1=0-20% damage
Summary of the method: as §1

[9] = test system: Zea mays (ZEAMX); assay: Post-emergence Test, Zea mays (ZEAMX); set-up: key to percentage damage caused to the plant, ZEAMX (five-point scale): 5=81-100%, 4=61-80%, 3=41-60%, 2=21-40%, 1=0-20% damage
Summary of the method: as §1

[10] = test system: Ipomoea hederacea (IPOHE); assay: Post-emergence Test, Ipomoea hederacea (IPOHE); set-up: key to percentage damage caused to the plant, IPOHE (five-point scale): 5=81-100%, 4=61-80%, 3=41-60%, 2=21-40%, 1=0-20% damage
Summary of the method: as §1

[11] = test system: Amaranthus palmeri (AMAPA); assay: Post-emergence Test, Amaranthus palmeri (AMAPA); set-up: key: 5=81-100%, 4=61-80%, 3=41-60%, 2=21-40%, 1=0-20% damage
Summary of the method: as §1

[12] = test system: Amaranthus retoflexus (AMARE); assay: Post-emergence Test, Amaranthus retoflexus (AMARE); set-up: key to percentage damage caused to the plant, AMARE (five-point scale): 5=81-100%, 4=61-80%, 3=41-60%, 2=21-40%, 1=0-20% damage
Summary of the method: as §1

Row | SMILES | Pre-emergence Test SETFA, percentage damage caused to the plant (five-point scale) ([1]; 1000 g/ha) | Pre-emergence Test ECHCG, percentage damage caused to the plant (five-point scale) ([2]; 1000 g/ha) | Pre-emergence Test ZEAMX, percentage damage caused to the plant (five-point scale) ([3]; 1000 g/ha) | Pre-emergence Test IPOHE, percentage damage caused to the plant (five-point scale) ([4]; 1000 g/ha) | Pre-emergence Test AMAPA, percentage damage caused to the plant (five-point scale) ([5]; 1000 g/ha) | Pre-emergence Test AMARE, percentage damage caused to the plant (five-point scale) ([6]; 1000 g/ha) | percentage damage caused to the plant, SETFA (five-point scale) ([7]; 250 g/Ha) | percentage damage caused to the plant, SETFA (five-point scale) ([7]; 1000 g/ha) | percentage damage caused to the plant, ECHCG (five-point scale) ([8]; 250 g/Ha) | percentage damage caused to the plant, ECHCG (five-point scale) ([8]; 1000 g/ha) | percentage damage caused to the plant, ZEAMX (five-point scale) ([9]; 250 g/Ha) | percentage damage caused to the plant, ZEAMX (five-point scale) ([9]; 1000 g/ha) | percentage damage caused to the plant, IPOHE (five-point scale) ([10]; 250 g/Ha) | percentage damage caused to the plant, IPOHE (five-point scale) ([10]; 1000 g/ha) | percentage damage caused to the plant, AMAPA (five-point scale) ([11]; 250 g/Ha) | percentage damage caused to the plant, AMAPA (five-point scale) ([11]; 1000 g/ha) | percentage damage caused to the plant, AMARE (five-point scale) ([12]; 250 g/Ha) | percentage damage caused to the plant, AMARE (five-point scale) ([12]; 1000 g/ha) | Pre-emergence Test SETFA, percentage damage caused to the plant (five-point scale) ([1]; 250 g/Ha (*)) | Pre-emergence Test ECHCG, percentage damage caused to the plant (five-point scale) ([2]; 250 g/Ha (*)) | further results
1 | CCn1c(Cn2nccn2)cc(=O)c(C(=O)O)c1-c1ccc(Cl)c(Cl)c1 [Compound 48, 2-(3,4-dichlorophenyl)-1-ethyl-4-oxo-6-(triazol-2-ylmethyl)pyridine-3-carboxylic acid] | 5 (5=81-100%) | 5 (5=81-100%) | 0 | 0 | 1 (1=0-20%) | 0 | 4 (4=61-80%) | 4 (4=61-80%) | 3 (3=41-60%) | 5 (5=81-100%) | 0 | 3 (3=41-60%) | 4 (4=61-80%) | 2 (2=21-40%) | 1 (1=0-20%) | 3 (3=41-60%) | 1 (1=0-20%) | 0 |  |  | 
2 | CCn1c(Cn2nccc2OC(F)F)cc(=O)c(C(=O)O)c1-c1ccc(Cl)c(Cl)c1 [Compound 85, 2-(3,4-dichlorophenyl)-6-[[5-(difluoromethoxy)pyrazol-1-yl]methyl]-1-ethyl-4-oxo-pyridine-3-carboxylic acid] |  |  |  |  |  |  | 4 (4=61-80%) |  | 2 (2=21-40%) |  | 0 |  | 4 (4=61-80%) |  | 0 |  | 0 |  | 3 (3=41-60%) | 2 (2=21-40%) | Pre-emergence Test ZEAMX, percentage damage caused to the plant (five-point scale) ([3]; 250 g/Ha (*)): 0; Pre-emergence Test IPOHE, percentage damage caused to the plant (five-point scale) ([4]; 250 g/Ha (*)): 1 (1=0-20%); Pre-emergence Test AMAPA, percentage damage caused to the plant (five-point scale) ([5]; 250 g/Ha (*)): 0; Pre-emergence Test AMARE, percentage damage caused to the plant (five-point scale) ([6]; 250 g/Ha (*)): 0
3 | CCn1c(Cn2cnc(C(F)(F)F)n2)cc(=O)c(C(=O)O)c1-c1ccc(Cl)c(Cl)c1 [Compound 7, 2-(3,4-dichlorophenyl)-1-ethyl-4-oxo-6-[[3-(trifluoromethyl)-1,2,4-triazol-1-yl]methyl]pyridine-3-carboxylic acid] | 3 (3=41-60%) | 3 (3=41-60%) | 1 (1=0-20%) | 0 | 0 | 0 |  | 4 (4=61-80%) |  | 2 (2=21-40%) |  | 1 (1=0-20%) |  | 1 (1=0-20%) |  | 1 (1=0-20%) |  | 1 (1=0-20%) |  |  | 
4 | CCn1c(Cn2cc(C(F)(F)F)nc2C)cc(=O)c(C(=O)O)c1-c1ccc(Cl)c(Cl)c1 [Compound 103, 2-(3,4-dichlorophenyl)-1-ethyl-6-[[2-methyl-4-(trifluoromethyl)imidazol-1-yl]methyl]-4-oxo-pyridine-3-carboxylic acid] | 1 (1=0-20%) | 1 (1=0-20%) | 0 | 0 | 2 (2=21-40%) | 1 (1=0-20%) |  | 1 (1=0-20%) |  | 1 (1=0-20%) |  | 1 (1=0-20%) |  | 0 |  | 1 (1=0-20%) |  | 1 (1=0-20%) |  |  | 
5 | CCOc1cc(C(F)(F)F)nn1Cc1cc(=O)c(C(=O)O)c(-c2ccc(Cl)c(Cl)c2)n1CC [Compound 148, 2-(3,4-dichlorophenyl)-6-[[5-ethoxy-3-(trifluoromethyl)pyrazol-1-yl]methyl]-1-ethyl-4-oxo-pyridine-3-carboxylic acid] | 5 (5=81-100%) | 2 (2=21-40%) | 0 | 2 (2=21-40%) | 1 (1=0-20%) | 0 | 3 (3=41-60%) | 4 (4=61-80%) | 2 (2=21-40%) | 4 (4=61-80%) | 1 (1=0-20%) | 2 (2=21-40%) | 2 (2=21-40%) | 2 (2=21-40%) | 1 (1=0-20%) | 3 (3=41-60%) | 1 (1=0-20%) | 3 (3=41-60%) | 2 (2=21-40%) | 0 | Pre-emergence Test ZEAMX, percentage damage caused to the plant (five-point scale) ([3]; 250 g/Ha (*)): 0; Pre-emergence Test IPOHE, percentage damage caused to the plant (five-point scale) ([4]; 250 g/Ha (*)): 0; Pre-emergence Test AMAPA, percentage damage caused to the plant (five-point scale) ([5]; 250 g/Ha (*)): 0; Pre-emergence Test AMARE, percentage damage caused to the plant (five-point scale) ([6]; 250 g/Ha (*)): 0
6 | CCn1c(Cn2cc([N+](=O)[O-])c(C)n2)cc(=O)c(C(=O)O)c1-c1ccc(Cl)c(Cl)c1 [Compound 64, 2-(3,4-dichlorophenyl)-1-ethyl-6-[(3-methyl-4-nitro-pyrazol-1-yl)methyl]-4-oxo-pyridine-3-carboxylic acid] |  |  |  |  |  |  | 2 (2=21-40%) |  | 3 (3=41-60%) |  | 1 (1=0-20%) |  | 1 (1=0-20%) |  | 2 (2=21-40%) |  | 3 (3=41-60%) |  | 2 (2=21-40%) | 0 | Pre-emergence Test ZEAMX, percentage damage caused to the plant (five-point scale) ([3]; 250 g/Ha (*)): 0; Pre-emergence Test IPOHE, percentage damage caused to the plant (five-point scale) ([4]; 250 g/Ha (*)): 3 (3=41-60%); Pre-emergence Test AMAPA, percentage damage caused to the plant (five-point scale) ([5]; 250 g/Ha (*)): 1 (1=0-20%); Pre-emergence Test AMARE, percentage damage caused to the plant (five-point scale) ([6]; 250 g/Ha (*)): 0
7 | CCn1c(Cn2ccc(OC)n2)cc(=O)c(C(=O)O)c1-c1ccc(Cl)c(Cl)c1 [Compound 38, 2-(3,4-dichlorophenyl)-1-ethyl-6-[(3-methoxypyrazol-1-yl)methyl]-4-oxo-pyridine-3-carboxylic acid] | 5 (5=81-100%) | 5 (5=81-100%) | 5 (5=81-100%) | 4 (4=61-80%) | 3 (3=41-60%) | 2 (2=21-40%) | 4 (4=61-80%) | 4 (4=61-80%) | 3 (3=41-60%) | 4 (4=61-80%) | 2 (2=21-40%) | 4 (4=61-80%) | 4 (4=61-80%) | 3 (3=41-60%) | 1 (1=0-20%) | 4 (4=61-80%) | 2 (2=21-40%) | 4 (4=61-80%) |  |  | 
